# Reference: patent US9676752B2, “Imidazolidine-2,4-dione derivatives” (IPSEN PHARMA S.A.S., priority 2013, dated 2017)
# Tests used:
# [1] = tested on: human prostate cancer cells; conditions: agonist activity in place of antagonist activity; cited from earlier work
# [2] = Evaluation of solubility in potassium phosphate buffer pH 7.4; format: physicochemical; conditions: aqueous buffer, kinetic from dmso stock; 100 mM potassium phosphate buffer pH 7.4, target 10 μM, 0.1% DMSO, 1 hour room temperature, LC-MS/MS
# Description: Evaluation of Solubility:
# Test compounds were prepared as stock solutions at […] in DMSO. The stock solutions were diluted, in duplicate, into 100 mM potassium phosphate buffer (pH 7.4) to a target concentration of 10 μM with a final DMSO concentration of 0.1%. The solutions were shaken at 1000 rpm for 1 hour at room temperature followed by centrifugation for 10 minutes at 1200 rpm to precipitate un-dissolved particles. The supernatants were transferred to new tubes and the samples were further prepared as follows: • Undiluted: 5 μL of supernatant to 95 μL of ACN containing internal standard (IS) • 1:10 diluted: 10 μL of the supernatant into 90 μL K-buffer, mix, then transfer 5 μL of 1:10 diluted samples to 95 μL ACN containing IS • 1:100 diluted: 10 μL of the supernatant into 990 μL K-buffer, mix, then transfer 5 μL of 1:100 diluted samples to 95 μL of ACN containing IS
# Samples (undiluted, 1:10 diluted, and 1:100 diluted) along with the standards were analyzed by LC-MS/MS.
# DU145 = assay: Anti-proliferative activity on DU145 in complete medium; format: cell-based; conditions: Homo sapiens, DU-145, 144 h incubation, Cell-Titer-Glow, line does not express androgen receptor
# Description: 2. Anti-Proliferative Activity on DU145 in Complete Medium
# (§1) It is used to evaluate the selectivity of the compounds for androgen receptor expressing cells. No activity of the compounds is expected. • The cells of the DU145 line (ATCC HTB-81) are seeded at 800 cells/well in 90 μl of complete medium in 96-well plates coated with poly-D-lysine (Biocoat, Costar). • Treatment of the cells: 24 h after the seeding, the cells are treated with 10 μl/well of compound diluted in the culture medium. The concentrations used are the following: 1 nM/10/30/100/300/1000/3000/10,000 nM. The cells are incubated for 144 h at 37° C., 5% CO2. • Reading: After incubation for 6 days, cell proliferation was determined by Cell-Titer-Glow (CTG) Luminescent Cell Viability Assay • Results: The experiments are carried out in duplicate and the best compounds are tested twice. A concentration value inhibiting the cell proliferation by 50% (IC50) is calculated.
# androgen receptor = target: T1, androgen receptor (Homo sapiens, UniProt P10275, T878A); assay: Measurement of protein expression of the androgen receptor in LNCaP cells (AR ELISA); format: cell-based; conditions: 3 days treatment, whole cell protein, AR ELISA kit; read-out: IC50 AR destruction in LNCaP
# T1 construct: This line expresses the androgen receptor and is hormone-dependent; endogenous in cells; host or cells: LNCaP (ATCC, 1740)
# T1 sequence (P10275 1-920 T878A): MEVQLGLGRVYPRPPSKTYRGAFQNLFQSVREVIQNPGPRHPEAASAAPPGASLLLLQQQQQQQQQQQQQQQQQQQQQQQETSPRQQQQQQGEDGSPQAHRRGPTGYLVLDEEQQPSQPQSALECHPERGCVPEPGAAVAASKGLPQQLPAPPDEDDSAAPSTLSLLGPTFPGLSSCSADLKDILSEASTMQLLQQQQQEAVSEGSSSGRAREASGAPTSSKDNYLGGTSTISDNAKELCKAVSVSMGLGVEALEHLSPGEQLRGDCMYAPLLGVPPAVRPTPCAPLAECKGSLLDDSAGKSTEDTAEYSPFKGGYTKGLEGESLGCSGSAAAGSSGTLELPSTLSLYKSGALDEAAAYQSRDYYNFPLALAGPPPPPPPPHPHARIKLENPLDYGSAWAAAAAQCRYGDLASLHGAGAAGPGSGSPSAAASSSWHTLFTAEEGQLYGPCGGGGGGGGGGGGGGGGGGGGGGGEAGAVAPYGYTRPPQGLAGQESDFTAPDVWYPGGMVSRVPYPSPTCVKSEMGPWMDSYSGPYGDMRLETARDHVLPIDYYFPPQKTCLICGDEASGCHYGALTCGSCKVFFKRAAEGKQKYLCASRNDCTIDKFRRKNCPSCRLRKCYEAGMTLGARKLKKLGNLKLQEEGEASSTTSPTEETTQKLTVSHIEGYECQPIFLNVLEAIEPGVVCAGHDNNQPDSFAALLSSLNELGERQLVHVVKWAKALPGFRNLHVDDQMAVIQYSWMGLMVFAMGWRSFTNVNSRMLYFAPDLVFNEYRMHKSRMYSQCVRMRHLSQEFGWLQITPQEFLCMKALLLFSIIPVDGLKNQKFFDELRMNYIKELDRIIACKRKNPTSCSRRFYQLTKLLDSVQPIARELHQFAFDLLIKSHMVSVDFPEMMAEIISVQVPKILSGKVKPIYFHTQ
# Description: Measurement of Protein Expression of the Androgen Receptor
# The cells of the LNCaP line are seeded at a rate of 2.5 million of cells per 10 cm Petri dish and maintained in 8 ml RPMI-1640 for 4 days. After 4 days incubation, 4 ml of medium were removed from the Petri dish and 5 ml fresh medium was added carefully. 1 ml of compounds 10-fold diluted in complete medium at concentrations from 3×10^-6 M to 10^-8 M. Cells were treated with the compounds for additional 3 days. The whole cell protein was extracted by Nuclear Extract kit and quantitated by the Bradford Protein Assay. The effect of compounds on AR levels in LNCaP cells was then determined by an AR ELISA kit.
# LNCaP = assay: Anti-proliferative activity on LNCaP in complete medium; format: cell-based; conditions: Homo sapiens, 144 h incubation, Cell-Titer-Glow
# Description: 1. Anti-Proliferative Activity on LNCaP in Complete Medium
# The anti-proliferative activity of the compounds of the present invention is determined on LNCaP in complete medium by applying the following experimental procedure:
# The LNCaP cell type (ATCC, 1740) originates from a prostate carcinoma. This line expresses the androgen receptor and is hormone-dependent.
# Maintenance of the LNCaP line is carried out in complete culture medium: RPMI, 10% of fetal calf serum, 2 mM glutamine, 100 U/ml penicillin, 0.1 mg/ml of streptomycin and 0.01M HEPES, 1 mM sodium pyruvate, […] of D-glucose. • Seeding the plates: The LNCaP line is seeded at 20,000 cells/well in 90 μl of complete medium in 96-well plates coated with poly-D-lysine (Biocoat, Costar). • Treatment of the cells: 24 h after the seeding, the cells are treated with 10 μl/well of compound diluted in the culture medium. The concentrations used are the following: 1 nM/10/30/100/300/1000/3000/10,000 nM. The cells are incubated for 144 h at 37° C., 5% CO2. • Reading: After incubation for 6 days, cell proliferation was determined by Cell-Titer-Glow (CTG) Luminescent Cell Viability Assay. • Results: The experiments are carried out in duplicate and the best compounds are tested twice. A concentration value inhibiting the cell proliferation by 50% (IC50) is calculated.
# VCaP = assay: Anti-proliferative activity on VCaP in complete medium; format: cell-based; conditions: Homo sapiens, 216 h, Cell-Titer-Glow, reading after 9 days
# Description: as §1, with “3. Anti-Proliferative Activity on VCaP in Complete Medium •” for “It is used to evaluate the selectivity of the compounds for androgen receptor expressing cells. No activity of the compounds is expected. •”, “the VCaP” for “the DU145”, “(ATCC CRL-2876)” for “(ATCC HTB-81)”, “at 20000” for “at 800”, “for […]” for “for 6”
SMILES,effect on growth of human prostate cancer cells in culture [1],solubility at 1 h [2],IC50 (DU145),DC50 (androgen receptor),IC50 (LNCaP),IC50 (VCaP)
CC1(C)NC(=O)N(c2ccc([N+](=O)[O-])c(C(F)(F)F)c2)C1=O [nilutamide],capable of stimulating the growth,,,,,
"CC1(C)C(=O)N(c2ccc(S(C)(=O)=O)c(C(F)(F)F)c2)C(=O)N1C/C=C\CN1C(=O)N(c2cnc(C#N)c(C(F)(F)F)c2)C(=O)C1(C)C [Example 2, (Z)-5-(3-(4-(5,5-dimethyl-3-(4-(methylsulfonyl)-3-(trifluoromethyl)phenyl)-2,4-dioxoimidazolidin-1-yl)but-2-en-1-yl)-4,4-dimethyl-2,5-dioxoimidazolidin-1-yl)-3-(trifluoromethyl)picolinonitrile]",,0.14 µM,> 10 µM,946 nM,1590 nM,1050 nM
"CC1(C)C(=O)N(c2ccc(C#N)c(C(F)(F)F)c2)C(=O)N1C/C=C\CN1C(=O)N(c2ccc(S(C)(=O)=O)c(C(F)(F)F)c2)C(=O)C1(C)C [Example 1, (Z)-4-(3-(4-(5,5-dimethyl-3-(4-(methylsulfonyl)-3-(trifluoromethyl)phenyl)-2,4-dioxoimidazolidin-1-yl)but-2-en-1-yl)-4,4-dimethyl-2,5-dioxoimidazolidin-1-yl)-2-(trifluoromethyl)benzonitrile]",,2.66 µM,> 10 µM,123 nM,313 nM,551 nM
"CC1(C)C(=O)N(c2ccc(C#N)c(C(F)(F)F)c2)C(=O)N1C/C=C\CN1CC(=O)N(c2ccc(S(C)(=O)=O)c(C(F)(F)F)c2)C1=O [Example 3, (Z)-4-(4,4-dimethyl-3-(4-(3-(4-(methylsulfonyl)-3-(trifluoromethyl)phenyl)-2,4-dioxoimidazolidin-1-yl)but-2-en-1-yl)-2,5-dioxoimidazolidin-1-yl)-2-(trifluoromethyl)benzonitrile]",,0.53 µM,> 10 µM,,1120 nM,
